Experimental data as given in publication PMC10385824, “Antiproliferative and Tubulin-Destabilising Effects of 3-(Prop-1-en-2-yl)azetidin-2-Ones and Related Compounds in MCF-7 and MDA-MB-231 Breast Cancer Cells” (Pharmaceuticals, 2023).
Where two headings read alike, the source gives them in different places.

What was measured:
[1] = system: MCF-7 human breast cancer cells; assay: cells
[2] = system: MDA-MB-231 human breast cancer cells; assay: Alamar Blue cell viability (antiproliferative) assay; format: cell-based; settings: 72 h, eight concentrations 0.001-50 μM, mean ± SEM, read-out: Antiproliferative Activity IC50
[3] = system: purified bovine brain tubulin; assay: Tubulin polymerization assay (light scattering, BK006 kit); format: biochemical; settings: compound at 10 μM; for Fold Reduction in Vmax: relative to vehicle
Method: Tubulin polymerization was monitored using the BK006 kit obtained from Cytoskeleton Inc. (Denver, CO, USA). The values reported represent the average values determined from two independent assays. Purified bovine brain tubulin (>99%, 3 mg/mL) in buffer containing PIPES (80 mM, pH 6.9), EGTA (0.5 mM), MgCl2 (2 mM), GTP (1 mM) and glycerol (10%) was incubated at 37 °C in vehicle (1% DMSO or EtOH (v/v) in dH2O) or with compounds 9h, 9q, 9s, 10h, 10p, 10r, 11h, 11p, 11r, 17f (all at 10 µM concentration); CA-4 (10 μM) was used as control. In this assay, light scattering is related to the concentration of polymerised microtubules produced. Tubulin assembly was monitored turbidimetrically at 340 nm at 37 °C in a Spectramax 340 PC spectrophotometer (Molecular Devices, Sunnyvale, CA, USA).

MDA-MB-231/ATCC = assay: NCI-60 SRB screen, breast cancer; format: cell-based, human; settings: Homo sapiens, MDA-MB-231, 48 h, read-out: Antiproliferative Activity IC50
[4] = system: NCI 60 human cancer cell line panel; assay: NCI 60 cell line screen (SRB), panel values; settings: Homo sapiens, 60 cell
[5] = MCF7, read-out: Antiproliferative Activity IC50, MCF-7, eight concentrations 0.001–50 μM, mean ± SEM, Table 4
[6] = MCF7, read-out: Antiproliferative Activity IC50, MCF-7, eight concentrations 0.001–50 μM, mean ± SEM, Table 3
[7] = MCF7, 72 h, read-out: Antiproliferative Activity IC50, MCF-7, 72 h, eight concentrations 1–50 μM, mean ± SEM, Table 2
[8] = MCF7, 72 h, read-out: Antiproliferative Activity IC50, MCF-7, 72 h, eight concentrations (0.001–50 mM [sic]), mean ± SEM, Table 5
[9] = MCF7, read-out: Antiproliferative Activity IC50

Row | melting point [°C] | IC50 [1, 5] [nM] | SMILES | further results
1 | 90 to 93 | 19400 ± 4030 | C=C/C=C/C1C(=O)N(c2cc(OC)c(OC)c(OC)c2)C1c1ccccc1 (stereo not drawn) [11f, (E)-3-(Buta-1,3-dien-1-yl)-4-phenyl-1-(3,4,5-trimethoxyphenyl)azetidin-2-one] | 
2 | 119 to 120 | 37900 ± 3800 | C=C/C=C/C1C(=O)N(c2cc(OC)c(OC)c(OC)c2)C1c1ccc(Oc2ccccc2)cc1 (stereo not drawn) [11k, (E)-3-(Buta-1,3-dien-1-yl)-4-(4-phenoxyphenyl)-1-(3,4,5-trimethoxyphenyl)azetidin-2-one] | 
3 | 88 to 89 | 200 ± 40 | C=CC=CC1C(=O)N(c2cc(OC)c(OC)c(OC)c2)C1c1ccc(C)cc1 (stereo not drawn) [11g, 3-(Buta-1,3-dienyl)-4-p-tolyl-1-(3,4,5-trimethoxyphenyl)azetidin-2-one] | IC50 [2]: 160 ± 14 nM
4 | 145 to 147 | 315 ± 40 | C=C/C=C/C1C(=O)N(c2cc(OC)c(OC)c(OC)c2)C1c1ccc(Cl)cc1 (stereo not drawn) [11b, (E)-3-(Buta-1,3-dien-1-yl)-4-(4-chlorophenyl)-1-(3,4,5-trimethoxyphenyl)azetidin-2-one] | 
5 | 153 to 155 | 428 ± 42 | C=C/C=C/C1C(=O)N(c2cc(OC)c(OC)c(OC)c2)C1c1ccc(Br)cc1 (stereo not drawn) [11c, (E)-4-(4-Bromophenyl)-3-(buta-1,3-dien-1-yl)-1-(3,4,5-trimethoxyphenyl)azetidin-2-one] | 
6 | 88 to 90 | 511 ± 90 | C=C/C=C/C1C(=O)N(c2cc(OC)c(OC)c(OC)c2)C1c1ccc(OC)c([N+](=O)[O-])c1 (stereo not drawn) [11q, (E)-3-(Buta-1,3-dien-1-yl)-4-(4-methoxy-3-nitrophenyl)-1-(3,4,5-trimethoxyphenyl)azetidin-2-one] | 
7 | 113 to 114 | 576 ± 100 | C=C/C=C/C1C(=O)N(c2cc(OC)c(OC)c(OC)c2)C1c1cccc2ccccc12 (stereo not drawn) [11m, (E)-3-(Buta-1,3-dien-1-yl)-4-(naphthalen-1-yl)-1-(3,4,5-trimethoxyphenyl)azetidin-2-one] | 
8 | 137 to 139 | 3210 ± 620 | C=C/C=C/C1C(=O)N(c2cc(OC)c(OC)c(OC)c2)C1c1ccc(F)cc1 (stereo not drawn) [11d, (E)-3-(Buta-1,3-dien-1-yl)-4-(4-fluorophenyl)-1-(3,4,5-trimethoxyphenyl)azetidin-2-one] | 
9 | 133 to 134 | 784 ± 130 | C=C/C=C/C1C(=O)N(c2cc(OC)c(OC)c(OC)c2)C1c1ccc([N+](=O)[O-])cc1 (stereo not drawn) [11a, (E)-3-(Buta-1,3-dien-1-yl)-4-(4-nitrophenyl)-1-(3,4,5-trimethoxyphenyl)azetidin-2-one] | 
10 | 73 to 75 | 261 ± 50 | C=C/C=C/C1C(=O)N(c2cc(OC)c(OC)c(OC)c2)C1c1ccc(OCC)cc1 (stereo not drawn) [11i, (E)-3-(Buta-1,3-dien-1-yl)-4-(4-ethoxyphenyl)-1-(3,4,5-trimethoxyphenyl)-azetidin-2-one] | 
11 |  | 9360 ± 1210 | C=CC=CC1C(=O)N(c2cc(OC)c(OC)c(OC)c2)C1c1ccc(OC)c(NC(=O)CN)c1 (stereo not drawn) [13e, 2-Amino-N-(5-(3-(buta-1,3-dienyl)-1-(3,4,5-trimethoxyphenyl)-4-oxoazetidin-2-yl)-2-methoxyphenyl)acetamide] | 

More lines, now with the values behind:

Row | SMILES | melting point [°C] | IC50 [1, 5] [nM] | further results
12 | C=C(C)C1C(=O)N(c2cc(OC)c(OC)c(OC)c2)C1c1ccc(Oc2ccccc2)cc1 (stereo not drawn) [9k, 4-(4-Phenoxyphenyl)-1-(3,4,5-trimethoxyphenyl)-3-(prop-1-en-2-yl)azetidin-2-one] | 126 to 127 |  | 
13 | C=CCC1C(=O)N(c2cc(OC)c(OC)c(OC)c2)C1c1ccc(OCc2ccccc2)cc1 (stereo not drawn) [10l, 3-Allyl-4-(4-benzyloxyphenyl)-1-(3,4,5-trimethoxyphenyl)azetidin-2-one] | 140 to 141 |  | IC50 [2]: 486 ± 60 nM; IC50 [1, 6]: 7390 ± 670 nM
14 | C=C(C)C1C(=O)N(c2cc(OC)c(OC)c(OC)c2)C1c1ccc([N+](=O)[O-])cc1 (stereo not drawn) [9a, 4-(4-Nitrophenyl)-1-(3,4,5-trimethoxyphenyl)-3-(prop-1-en-2-yl)azetidin-2-one] | 129 to 130 |  | IC50 [1, 7]: 4960 ± 690 nM
15 | C=C(C)C1C(=O)N(c2cc(OC)c(OC)c(OC)c2)C1c1ccccc1 (stereo not drawn) [9f, 4-Phenyl-1-(3,4,5-trimethoxyphenyl)-3-(prop-1-en-2-yl)azetidin-2-one] | 108 to 109 |  | IC50 [1, 7]: 494 ± 140 nM
16 | COc1ccc(C2C(CC=Cc3ccccc3)C(=O)N2c2cc(OC)c(OC)c(OC)c2)cc1 (stereo not drawn) [17a, 3-Cinnamyl-4-(4-methoxyphenyl)-1-(3,4,5-trimethoxyphenyl)azetidin-2-one] | 103 to 104 |  | IC50 [1, 8]: 332 ± 40 nM
17 | C=C(C)C1C(=O)N(c2ccc(OC)cc2)C1c1ccccc1 (stereo not drawn) [9w, 1-(4-Methoxyphenyl)-4-phenyl-3-(prop-1-en-2-yl)azetidin-2-one] | 111 to 113 |  | IC50 [1, 7]: 33 ± 5 nM
18 | C=C/C=C/C1C(=O)N(c2cc(OC)c(OC)c(OC)c2)C1c1ccc(OC)c(O)c1 (stereo not drawn) [11p, (E)-3-(Buta-1,3-dien-1-yl)-4-(3-hydroxy-4-methoxyphenyl)-1-(3,4,5-trimethoxyphenyl)azetidin-2-one] |  |  | Fold Reduction in Vmax [3]: 1.1; IC50 (MDA-MB-231/ATCC): 113 nM; IC50 [1, 9]: 61 ± 8 nM; GI50 ([4]; read-out: Mean GI50, mean over all NCI 60 cell lines): 288 nM; CC50 ([4]; read-out: Mean LC50): 91.2 µM; IC (TGI (total growth inhibition)) ([4]; read-out: Mean TGI): 31.6 µM
19 | CCOC(=O)CC1C(=O)N(c2cc(OC)c(OC)c(OC)c2)C1c1ccc(OC)cc1 (stereo not drawn) [17f, Ethyl-2-(1-(3,4,5-trimethoxyphenyl)-2-(4-methoxyphenyl)-4-oxoazetidin-3-yl)acetate] |  |  | Vmax ([3]; 37 °C, 340 nm): 0.0038 mOD/min; Fold Reduction in Vmax [3]: 2.2; IC50 [1, 8]: 35 ± 3 nM
20 | COc1cc(N2C(=O)C(C3C=CCC4C(=O)N(c5ccccc5)C(=O)C43)C2c2ccc(Cl)cc2)cc(OC)c1OC (stereo not drawn) [21a, 4-(2-(4-Chlorophenyl)-1-(3,4,5-trimethoxyphenyl)-4-oxoazetidin-3-yl)-3a,4,7,7a-tetrahydro-2-phenyl-2H-isoindole-1,3-dione] | 208 to 210 |  | IC50 [1, 8]: 106000 ± 13900 nM
21 | COc1cc(N2C(=O)C(C3C=CCC4C(=O)OC(=O)C43)C2c2ccc(Br)cc2)cc(OC)c1OC (stereo not drawn) [21b, 4-(2-(4-Bromophenyl)-1-(3,4,5-trimethoxyphenyl)-4-oxoazetidin-3-yl)-3a,4,7,7a-tetrahydroisobenzofuran-1,3-dione] | 242 to 244 |  | IC50 [1, 8]: 96200 ± 13500 nM
22 | CCCCOc1ccc(C2C(C3C=CCC4C(=O)N(c5ccccc5)C(=O)C43)C(=O)N2c2cc(OC)c(OC)c(OC)c2)cc1 (stereo not drawn) [21c, 4-(2-(4-Butoxyphenyl)-4-oxo-1-(3,4,5-trimethoxyphenyl)azetidin-3-yl)-2-phenyl-3a,4,7,7a-tetrahydro-1H-isoindole-1,3(2H)-dione] | 163 to 164 |  | IC50 [1, 8]: 38600 ± 4900 nM
23 | C=C(C)C1C(=O)N(c2ccccc2)C1c1ccc(OC)cc1 (stereo not drawn) [9x, 4-(4-Methoxyphenyl)-1-phenyl-3-(prop-1-en-2-yl)azetidin-2-one] | 104 to 105 |  | 
24 | C=CC[C@@H]1C(=O)N(c2cc(OC)c(OC)c(OC)c2)[C@H]1c1ccc(C)cc1 (relative stereo) [10g, 3-Allyl-4-p-tolyl-1-olyl-1-(3,4,5-trimethoxyphenyl)azetidin-2-one] |  |  | IC50 [2]: 377 ± 60 nM; IC50 [1, 6]: 199 ± 30 nM
25 | C=CCC1C(=O)N(c2cc(OC)c(OC)c(OC)c2)C1c1ccc(F)cc1 (stereo not drawn) [10d, 3-Allyl-4-(4-fluorophenyl)-1-(3,4,5-trimethoxyphenyl) azetidin-2-one] | 89 to 90 |  | IC50 [1, 9]: 33800 ± 9040 nM
26 | C=C(C)C1C(=O)N(c2cc(OC)c(OC)c(OC)c2)C1c1ccc(F)cc1 (stereo not drawn) [9d, 4-(4-Fluorophenyl)-1-(3,4,5-trimethoxyphenyl)-3-(prop-1-en-2-yl)azetidin-2-one] | 99 to 100 |  | IC50 [1, 7]: 691 ± 100 nM
27 | C=C(C)C1C(=O)N(c2cc(OC)c(OC)c(OC)c2)C1c1ccc(OCCCC)cc1 (stereo not drawn) [9j, 4-(4-Butoxyphenyl)-1-(3,4,5-trimethoxyphenyl)-3-(prop-1-en-2-yl)azetidine-2-one] | 55 to 57 |  | 
28 | COC(=O)C1=C(C(=O)OC)C(C2C(=O)N(c3cc(OC)c(OC)c(OC)c3)C2c2cccc3ccccc23)CC=C1 (single isomer, unassigned) [22a, Dimethyl-6-(1-(3,4,5-trimethoxyphenyl)-2-(naphthalen-1-yl)-4-oxoazetidin-3-yl)cyclohexa-1,3-diene-1,2-dicarboxylate] | 120 to 122 |  | 
29 | COc1ccc(C2C(C3C=CCC4C(=O)OC(=O)C43)C(=O)N2c2cc(OC)c(OC)c(OC)c2)cc1O (stereo not drawn) [21d, 3a,4,7,7a-Tetrahydro-4-(2-(3-hydroxy-4-methoxyphenyl)-1-(3,4,5-trimethoxyphenyl)-4-oxoazetidin-3-yl)isobenzofuran-1,3-dione] | 224 to 225 |  | IC50 [1, 8]: 91100 ± 14500 nM
